Measured values taken from US20230085307A1, “PYRIDAZINONE COMPOUND AND HERBICIDE” (NISSAN CHEMICAL CORPORATION, priority 2019, published 2023).

What was measured:
blackgrass [1] = experiment: Test Example 5: herbicidal effect by foliage application, plastic box (Table 20, symbol J); assay type: in vivo, blackgrass (Alopecurus myosuroides); conditions: foliage application
Method in brief: (§1)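 Plants sown in sterilized diluvial soil and grown 14 days in a greenhouse at 25° C to 30° C, then sprayed on the foliage with the compound's emulsion diluted in water to a predetermined herbicide amount. Injury to weeds and crops scored three weeks after application on a visual rating scale.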

Japanese bulrush = experiment: Test Example 1: herbicidal activity, application before weed generation under submerged conditions (Table 16, symbol B); assay type: in vivo, Japanese bulrush (Schoenoplectus juncoides)
Method in brief: (§2)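 Submerged Wagner pots (alluvial soil, 4 cm water) sown with weed seeds and planted with 2.5-leaf rice seedlings; emulsifiable concentrate diluted in water applied to water surface on sowing day. Held in greenhouse at 25-30 °C; injury scored 0-5 by herbicidal rate after three weeks.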

redroot pigweed [2] = experiment: Test Example 5: herbicidal effect by foliage application, plastic box (Table 20, symbol N); assay type: in vivo, redroot pigweed (Amaranthus retroflexus); conditions: foliage application
Method in brief: as §1

southern crabgrass [3] = experiment: Test Example 5: herbicidal effect by foliage application, plastic box (Table 20, symbol F); assay type: in vivo, southern crabgrass (Digitaria ciliaris); conditions: foliage application
Method in brief: as §1

late watergrass = experiment: Test Example 1: herbicidal activity, application before weed generation under submerged conditions (Table 16, symbol A); assay type: in vivo, late watergrass (Echinochloa oryzicola)
Method in brief: as §2

rice flat sedge = experiment: Test Example 3: herbicidal effect by foliage application, Wagner pot (Table 18, symbol E); assay type: in vivo, rice flat sedge (Cyperus iria); conditions: amount of applied herbicide 320 g/ha
Method in brief: (§3)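 Plants were sown in alluvial soil held under 0.1–0.5 cm standing water and grown 14 days in a greenhouse at 25–30 °C. An emulsifiable formulation, water-diluted to the set dose, was then sprayed onto the foliage, and effects were scored three weeks later using previously defined criteria.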

green foxtail [4] = experiment: Test Example 5: herbicidal effect by foliage application, plastic box (Table 20, symbol G); assay type: in vivo, green foxtail (Setaria viridis); conditions: foliage application
Method in brief: as §1

Italian ryegrass [5] = experiment: Test Example 5: herbicidal effect by foliage application, plastic box (Table 20, symbol K); assay type: in vivo, Italian ryegrass (Lolium multiflorum); conditions: foliage application
Method in brief: as §1

chickweed [6] = experiment: Test Example 5: herbicidal effect by foliage application, plastic box (Table 20, symbol P); assay type: in vivo, common chickweed (Stellaria media); conditions: foliage application
Method in brief: as §1

lambsquarters [7] = experiment: Test Example 5: herbicidal effect by foliage application, plastic box (Table 20, symbol O); assay type: in vivo, lambsquarters (Chenopodium album); conditions: foliage application
Method in brief: as §1

oval-leafed pondweed = experiment: Test Example 1: herbicidal activity, application before weed generation under submerged conditions (Table 16, symbol C); assay type: in vivo, oval-leafed pondweed (Monochoria vaginalis)
Method in brief: as §2

windgrass [8] = experiment: Test Example 5: herbicidal effect by foliage application, plastic box (Table 20, symbol L); assay type: in vivo, windgrass (Apera spica-venti); conditions: foliage application
Method in brief: as §1

persian speedwell = experiment: Test Example 5: herbicidal effect by foliage application, plastic box (Table 20, symbol R); assay type: in vivo, Persian speedwell (Veronica persica); conditions: foliage application
Method in brief: as §1

false cleavers = experiment: Test Example 5: herbicidal effect by foliage application, plastic box (Table 20, symbol Q); assay type: in vivo, false cleavers (Galium spurium); conditions: foliage application
Method in brief: as §1

barnyard grass [9] = experiment: Test Example 3: herbicidal effect by foliage application, Wagner pot (Table 18, symbol H); assay type: in vivo, barnyard grass (Echinochloa crus-galli); conditions: amount of applied herbicide 320 g/ha
Method in brief: as §3

velvetleaf [10] = experiment: Test Example 5: herbicidal effect by foliage application, plastic box (Table 20, symbol M); assay type: in vivo, velvetleaf (Abutilon theophrasti); conditions: foliage application
Method in brief: as §1

wild oat [11] = experiment: Test Example 5: herbicidal effect by foliage application, plastic box (Table 20, symbol I); assay type: in vivo, wild oat (Avena fatua); conditions: foliage application
Method in brief: as §1

barnyard grass [12] = experiment: Test Example 5: herbicidal effect by foliage application, plastic box (Table 20, symbol H); assay type: in vivo, barnyard grass (Echinochloa crus-galli); conditions: foliage application
Method in brief: as §1

Chinese sprangletop = experiment: Test Example 3: herbicidal effect by foliage application, Wagner pot (Table 18, symbol D); assay type: in vivo, chinese sprangletop (Leptochloa chinensis); conditions: amount of applied herbicide 320 g/ha
Method in brief: as §3

southern crabgrass [13] = experiment: Test Example 4: herbicidal effect by soil treatment (Table 19, symbol F); assay type: in vivo, southern crabgrass (Digitaria ciliaris); conditions: amount of applied herbicide 320 g/ha
Method in brief: (§4)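 Three weeks of greenhouse growth at 25° C. to 30° C. followed a uniform surface spray of water-diluted emulsion at a predetermined herbicide amount. Seeds had been sown beforehand under about 1.5 cm of sterilized diluvial soil. Grading followed criteria set out in an earlier test.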

barnyard grass [14] = experiment: Test Example 4: herbicidal effect by soil treatment (Table 19, symbol H); assay type: in vivo, barnyard grass (Echinochloa crus-galli); conditions: amount of applied herbicide 320 g/ha
Method in brief: as §4

windgrass [15] = experiment: Test Example 4: herbicidal effect by soil treatment (Table 19, symbol L); assay type: in vivo, windgrass (Apera spica-venti); conditions: amount of applied herbicide 320 g/ha
Method in brief: as §4

velvetleaf [16] = experiment: Test Example 4: herbicidal effect by soil treatment (Table 19, symbol M); assay type: in vivo, velvetleaf (Abutilon theophrasti); conditions: amount of applied herbicide 320 g/ha
Method in brief: as §4

blackgrass [17] = experiment: Test Example 4: herbicidal effect by soil treatment (Table 19, symbol J); assay type: in vivo, blackgrass (Alopecurus myosuroides); conditions: amount of applied herbicide 320 g/ha
Method in brief: as §4

lambsquarters [18] = experiment: Test Example 4: herbicidal effect by soil treatment (Table 19, symbol O); assay type: in vivo, lambsquarters (Chenopodium album); conditions: amount of applied herbicide 320 g/ha
Method in brief: as §4

chickweed [19] = experiment: Test Example 4: herbicidal effect by soil treatment (Table 19, symbol P); assay type: in vivo, common chickweed (Stellaria media); conditions: amount of applied herbicide 320 g/ha
Method in brief: as §4

redroot pigweed [20] = experiment: Test Example 4: herbicidal effect by soil treatment (Table 19, symbol N); assay type: in vivo, redroot pigweed (Amaranthus retroflexus); conditions: amount of applied herbicide 320 g/ha
Method in brief: as §4

green foxtail [21] = experiment: Test Example 4: herbicidal effect by soil treatment (Table 19, symbol G); assay type: in vivo, green foxtail (Setaria viridis); conditions: amount of applied herbicide 320 g/ha
Method in brief: as §4

Italian ryegrass [22] = experiment: Test Example 4: herbicidal effect by soil treatment (Table 19, symbol K); assay type: in vivo, Italian ryegrass (Lolium multiflorum); conditions: amount of applied herbicide 320 g/ha
Method in brief: as §4

wild oat [23] = experiment: Test Example 4: herbicidal effect by soil treatment (Table 19, symbol I); assay type: in vivo, wild oat (Avena fatua); conditions: amount of applied herbicide 320 g/ha
Method in brief: as §4

[24] = AAH 320 g/ha, evaluated three weeks after application
[25] = 320 g/ha, three weeks after application
[26] = amount of applied herbicide 320 g/ha

C=CCOc1cccc(-c2sc3ccc(F)cc3c2-c2c(O)c(C)nn(C)c2=O)c1 [2-269]
J: blackgrass, herbicidal effect (criteria 0-5) (blackgrass [1]; [24]): 0 (Herbicidal rate of 5% or less (almost no effect))
Herbicidal effect on B: Japanese bulrush (grade 0-5) (Japanese bulrush; 320 g/ha applied herbicide): 3 (Herbicidal rate of 40% or more and less than 70%)
N: redroot pigweed, herbicidal effect (criteria 0-5) (redroot pigweed [2]; [24]): 0 (Herbicidal rate of 5% or less (almost no effect))
F: southern crabgrass, herbicidal effect (criteria 0-5) (southern crabgrass [3]; [24]): 0 (Herbicidal rate of 5% or less (almost no effect))
Herbicidal effect on A: late watergrass (grade 0-5) (late watergrass; 320 g/ha applied herbicide): 3 (Herbicidal rate of 40% or more and less than 70%)
herbicidal effect on E: rice flat sedge (rice flat sedge): 3 (Herbicidal rate of 40% or more and less than 70%)
G: green foxtail, herbicidal effect (criteria 0-5) (green foxtail [4]; [24]): 0 (Herbicidal rate of 5% or less (almost no effect))
K: Italian ryegrass, herbicidal effect (criteria 0-5) (Italian ryegrass [5]; [24]): 0 (Herbicidal rate of 5% or less (almost no effect))
P: chickweed, herbicidal effect (criteria 0-5) (chickweed [6]; [24]): 3 (Herbicidal rate of 40% or more and less than 70%)
O: lambsquarters, herbicidal effect (criteria 0-5) (lambsquarters [7]; [24]): 0 (Herbicidal rate of 5% or less (almost no effect))
Herbicidal effect on C: oval-leafed pondweed (grade 0-5) (oval-leafed pondweed; 320 g/ha applied herbicide): 3 (Herbicidal rate of 40% or more and less than 70%)
L: windgrass, herbicidal effect (criteria 0-5) (windgrass [8]; [24]): 0 (Herbicidal rate of 5% or less (almost no effect))
R: persian speedwell, herbicidal effect (criteria 0-5) (persian speedwell; [24]): 1 (Herbicidal rate of 5% or more and less than 20%)
Q: false cleavers, herbicidal effect (criteria 0-5) (false cleavers; [24]): 0 (Herbicidal rate of 5% or less (almost no effect))
herbicidal effect on H: barnyard grass (barnyard grass [9]): 3 (Herbicidal rate of 40% or more and less than 70%)
M: velvetleaf, herbicidal effect (criteria 0-5) (velvetleaf [10]; [24]): 0 (Herbicidal rate of 5% or less (almost no effect))
I: wild oat, herbicidal effect (criteria 0-5) (wild oat [11]; [24]): 0 (Herbicidal rate of 5% or less (almost no effect))
H: barnyard grass, herbicidal effect (criteria 0-5) (barnyard grass [12]; [24]): 0 (Herbicidal rate of 5% or less (almost no effect))
herbicidal effect on D: Chinese sprangletop (Chinese sprangletop): 0 (Herbicidal rate of 5% or less (almost no effect))

Cc1nn(C)c(=O)c(-c2c(-c3ccc(OC(C)C)cc3)sc3cc(F)ccc23)c1O [3-019]
herbicidal effect, F: southern crabgrass (southern crabgrass [13]): 0 (Herbicidal rate of 5% or less (almost no effect))
herbicidal effect, H: barnyard grass (barnyard grass [14]): 0 (Herbicidal rate of 5% or less (almost no effect))
J: blackgrass, herbicidal effect grade (blackgrass [1]; [25]): 3 (Herbicidal rate of 40% or more and less than 70%)
Herbicidal effect, B: Japanese bulrush (Japanese bulrush; [26]): 3 (Herbicidal rate of 40% or more and less than 70%)
N: redroot pigweed, herbicidal effect grade (redroot pigweed [2]; [25]): 5 (Herbicidal rate of 90% or more (almost completely withered))
herbicidal effect, L: windgrass (windgrass [15]): 0 (Herbicidal rate of 5% or less (almost no effect))
F: southern crabgrass, herbicidal effect grade (southern crabgrass [3]; [25]): 0 (Herbicidal rate of 5% or less (almost no effect))
Herbicidal effect, A: late watergrass (late watergrass; [26]): 3 (Herbicidal rate of 40% or more and less than 70%)
herbicidal effect, M: velvetleaf (velvetleaf [16]): 0 (Herbicidal rate of 5% or less (almost no effect))
herbicidal effect on E: rice flat sedge (rice flat sedge): 3 (Herbicidal rate of 40% or more and less than 70%)
G: green foxtail, herbicidal effect grade (green foxtail [4]; [25]): 4 (Herbicidal rate of 70% or more and less than 90%)
K: Italian ryegrass, herbicidal effect grade (Italian ryegrass [5]; [25]): 3 (Herbicidal rate of 40% or more and less than 70%)
herbicidal effect, J: blackgrass (blackgrass [17]): 0 (Herbicidal rate of 5% or less (almost no effect))
herbicidal effect, O: lambsquarters (lambsquarters [18]): 3 (Herbicidal rate of 40% or more and less than 70%)
P: chickweed, herbicidal effect grade (chickweed [6]; [25]): 5 (Herbicidal rate of 90% or more (almost completely withered))
O: lambsquarters, herbicidal effect grade (lambsquarters [7]; [25]): 0 (Herbicidal rate of 5% or less (almost no effect))
herbicidal effect, P: chickweed (chickweed [19]): 0 (Herbicidal rate of 5% or less (almost no effect))
herbicidal effect, N: redroot pigweed (redroot pigweed [20]): 3 (Herbicidal rate of 40% or more and less than 70%)
Herbicidal effect, C: oval-leafed pondweed (oval-leafed pondweed; [26]): 3 (Herbicidal rate of 40% or more and less than 70%)
herbicidal effect, G: green foxtail (green foxtail [21]): 2 (Herbicidal rate of 20% or more and less than 40%)
L: windgrass, herbicidal effect grade (windgrass [8]; [25]): 3 (Herbicidal rate of 40% or more and less than 70%)
herbicidal effect, K: Italian ryegrass (Italian ryegrass [22]): 0 (Herbicidal rate of 5% or less (almost no effect))
herbicidal effect, I: wild oat (wild oat [23]): 0 (Herbicidal rate of 5% or less (almost no effect))
R: persian speedwell, herbicidal effect grade (persian speedwell; [25]): 5 (Herbicidal rate of 90% or more (almost completely withered))
Q: false cleavers, herbicidal effect grade (false cleavers; [25]): 4 (Herbicidal rate of 70% or more and less than 90%)
herbicidal effect on H: barnyard grass (barnyard grass [9]): 3 (Herbicidal rate of 40% or more and less than 70%)
M: velvetleaf, herbicidal effect grade (velvetleaf [10]; [25]): 3 (Herbicidal rate of 40% or more and less than 70%)
I: wild oat, herbicidal effect grade (wild oat [11]; [25]): 0 (Herbicidal rate of 5% or less (almost no effect))
H: barnyard grass, herbicidal effect grade (barnyard grass [12]; [25]): 3 (Herbicidal rate of 40% or more and less than 70%)
herbicidal effect on D: Chinese sprangletop (Chinese sprangletop): 0 (Herbicidal rate of 5% or less (almost no effect))
